Reference: patent publication US9150546B2, “Triazine derivative and pharmaceutical composition comprising the same” (SHIONOGI & CO., LTD., priority 2009, dated 2015)

molecular target: human P2X3 receptor (Homo sapiens (Human), UniProt P56373); test: P2X3 receptor inhibition, ATP-evoked Fluo-3 fluorescence (FDSS 3000); assay type: cell-based; conditions: C6BU-1 cell transfected with human P2X3 receptor gene
Sequence (P56373 whole entry): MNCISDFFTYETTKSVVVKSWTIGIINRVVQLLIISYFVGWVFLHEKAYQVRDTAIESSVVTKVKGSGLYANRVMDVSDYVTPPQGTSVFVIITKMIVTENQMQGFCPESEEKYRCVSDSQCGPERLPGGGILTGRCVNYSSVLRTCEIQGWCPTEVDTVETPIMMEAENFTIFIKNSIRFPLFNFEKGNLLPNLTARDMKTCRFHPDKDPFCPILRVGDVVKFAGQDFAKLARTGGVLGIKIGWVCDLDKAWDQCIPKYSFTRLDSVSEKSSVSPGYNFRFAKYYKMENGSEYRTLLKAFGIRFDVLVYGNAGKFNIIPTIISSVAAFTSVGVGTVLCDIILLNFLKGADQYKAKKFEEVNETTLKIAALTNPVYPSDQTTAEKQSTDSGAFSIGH

Row | SMILES | IC50
1 | CC(C)Oc1ccc(/N=c2\[nH]c(=O)n(CC(C)(C)C(=O)O)c(=O)n2CC2CCCCCC2)cc1Cl [I-553] | 34 nM
2 | COC(=O)CNC(=O)Cn1c(=O)[nH]/c(=N\c2ccc(OC(C)C)c(F)c2)n(Cc2ccc(Cl)cc2)c1=O [I-397] | 19 nM
3 | CC(C)Oc1ccc(Nc2nc(=O)n(CCO)c(=O)n2Cc2ccc([N+](=O)[O-])cc2)cc1F [I-347] | 251 nM
4 | CC(C)Oc1ccc(Nc2nc(=O)n(Cc3ccccn3)c(=O)n2Cc2ccc(Cl)cc2)cc1F [I-300] | 25 nM
5 | COC(=O)Cn1c(=O)nc(Nc2ccc(OC(C)C)c(F)c2)n(Cc2ccc(Cl)cc2)c1=O [I-338] | 53 nM
6 | CCOc1ccc(/N=c2\[nH]c(=O)n(CC(C)(C)C(=O)O)c(=O)n2Cc2ccc(Cl)cc2)cc1C [I-465] | 57 nM
7 | O=c1nc(Nc2cccc(C(F)(F)F)c2)n(Cc2ccc(Cl)cc2)c(=O)n1CCCO [I-357] | 47 nM
8 | CC(C)n1c(=O)nc(Nc2cccc(C(F)(F)F)c2)n(Cc2ccc(F)cc2)c1=O [I-126] | 689 nM
9 | CC(C)Oc1ccc(/N=c2\[nH]c(=O)n([C@@H](C)CC(=O)O)c(=O)n2Cc2ccc(Cl)cc2)cc1F [I-527] | 33 nM
10 | Cc1ccc(Cn2c(Nc3ccc(OC(C)C)cc3)nc(=O)n(C(C)C)c2=O)cc1[N+](=O)[O-] [I-218] | 505 nM
11 | CC(C)Oc1ccc(Nc2nc(=O)n(CCNC(=O)NCCO)c(=O)n2Cc2ccc(Cl)cc2)cc1F [I-390] | 67 nM
12 | CC(C)Oc1ccc(Nc2nc(=O)n(CC(C)(CO)CO)c(=O)n2Cc2ccc(Cl)cc2)cc1F [I-274] | 9 nM
13 | COC(=O)C(C)(C)Cn1c(=O)[nH]/c(=N\c2ccc3oc(C)cc3c2)n(Cc2ccc(Cl)cc2)c1=O [I-489] | 10 nM
14 | CC(C)Oc1ccc(/N=c2\[nH]c(=O)n(C[C@@H](C)C(=O)O)c(=O)n2Cc2ccc(Cl)cc2)cc1 [I-483] | 100 nM
15 | Cc1cc(/N=c2\[nH]c(=O)n(CCCC(=O)O)c(=O)n2Cc2ccc(Cl)cc2)ccc1OC(C)C [I-503] | 50 nM
16 | Cc1ccc(Cn2c(Nc3cccc(C(F)(F)F)c3)nc(=O)n(C(C)C)c2=O)cc1 [I-021] | 197 nM
17 | CCCCc1ccc(Nc2nc(=O)n(CCO)c(=O)n2Cc2ccc(Cl)cc2)cc1 [I-344] | 128 nM
18 | COC(=O)c1ccc(Nc2nc(=O)n(C(C)C)c(=O)n2Cc2ccc(F)cc2)cc1 [I-221] | 276 nM
19 | CCOc1ccc(/N=c2\[nH]c(=O)n(C[C@H](C)C(=O)O)c(=O)n2Cc2ccc(Cl)cc2)cc1 [I-535] | 52 nM
20 | CC(C)Oc1ccc(/N=c2\[nH]c(N3CCCC3=O)nc(=O)n2Cc2ccc(Cl)cc2)cc1Cl [II-012] | 568 nM
21 | COC(=O)CCn1c(=O)[nH]/c(=N\c2ccc(OC(C)C)c(F)c2)n(Cc2ccc(C)cc2)c1=O [I-409] | 12 nM
22 | COCCOc1ccc(Nc2nc(=O)n(C(C)C)c(=O)n2Cc2ccc(Cl)cc2)cc1Cl [I-237] | 230 nM
23 | Cc1cc2cc(/N=c3\[nH]c(=O)[nH]c(=O)n3Cc3ccc(Cl)cc3)ccc2o1 [I-501] | 191 nM
24 | CC(C)n1c(=O)nc(Nc2ccc(C#N)cc2)n(Cc2ccc(Cl)cc2)c1=O [I-372] | 964 nM
25 | CC(C)Oc1ccc(/N=c2\[nH]c(=O)n(CC3(C(=O)O)CC3)c(=O)n2Cc2ccc(Cl)cc2)cc1Cl [I-425] | 16 nM
26 | CCOC(=O)c1ccccc1Cn1c(=O)[nH]/c(=N\c2ccc(OC(C)C)c(F)c2)n(Cc2ccc(Cl)cc2)c1=O [I-454] | 24 nM
27 | COC(=O)C(C)(C)Cn1c(=O)[nH]/c(=N\c2ccc3c(ccn3C)c2)n(Cc2ccc(Cl)cc2)c1=O [I-427] | 678 nM

Row | SMILES | IC50
28 | CC(C)Oc1ccc(/N=c2\[nH]c(=O)n(C[C@@H](C)C(=O)O)c(=O)n2Cc2ccc(Cl)cc2)cc1Cl [I-460] | 16 nM
29 | CC(C)Oc1ccc(Nc2nc(=O)n(CCOC3CCCCO3)c(=O)n2Cc2ccc(Cl)cc2)cc1F (stereo not shown) [I-545] | 6 nM
30 | CC(C)Oc1ccc(Nc2nc(OCC(CO)CO)nc(=O)n2Cc2ccc(Cl)cc2)cc1F [II-008] | 943 nM
31 | CC(C)Oc1ccc(/N=c2\[nH]c(=O)n([C@H](C)CC(=O)O)c(=O)n2Cc2ccc(Cl)cc2)cc1F [I-562] | 27 nM
32 | O=c1nc(Nc2cccc(C(F)(F)F)c2)n(Cc2ccc(Cl)cc2)c(=O)n1CCO [I-313] | 178 nM
33 | CC(C)COc1ccc(Nc2nc(=O)n(CCO)c(=O)n2Cc2ccc(Cl)cc2)cc1F [I-323] | 148 nM
34 | Cc1ccc(Cn2c(=O)n(CC(=O)N[C@@H](C)C(=O)O)c(=O)[nH]/c2=N\c2ccc(OC(C)C)c(F)c2)cc1 [I-418] | 200 nM
35 | COc1ccc(Cn2c(=O)nc(Nc3ccc(OC(C)C)c(F)c3)n(Cc3ccc(Cl)cc3)c2=O)cc1 [I-343] | 21 nM
36 | O=c1nc(Nc2ccc(-c3ccon3)cc2)n(Cc2ccc(Cl)cc2)c(=O)n1CCO [I-278] | 931 nM
37 | COC(=O)C(C)(C)Cn1c(=O)[nH]/c(=N\c2ccc3[nH]ccc3c2)n(Cc2ccc(Cl)cc2)c1=O [I-470] | 80 nM
38 | COC(=O)C(C)(C)Cn1c(=O)[nH]/c(=N\c2ccc3c(ccn3CC(C)C)c2)n(Cc2ccc(Cl)cc2)c1=O [I-506] | 279 nM
39 | O=c1nc(Nc2cccc(OC(F)(F)F)c2)n(Cc2ccc(Cl)cc2)c(=O)n1CCO [I-309] | 357 nM
40 | Cc1cc2cc(/N=c3\[nH]c(=O)n(CCCC(=O)O)c(=O)n3Cc3ccc(Cl)cc3)ccc2o1 [I-505] | 120 nM
41 | O=c1nc(Nc2cccc(C(F)(F)F)c2)n(Cc2ccc(Cl)cc2)c(=O)n1CC(CO)CO [I-367] | 40 nM
42 | Cc1cc2cc(/N=c3\[nH]c(=O)n(C[C@@H](C)C(=O)O)c(=O)n3Cc3ccc(Cl)cc3)ccc2o1 [I-564] | 48 nM
43 | CCn1c(=O)nc(Nc2cccc(C(F)(F)F)c2)n(Cc2ccc(F)cc2)c1=O [I-138] | 619 nM
44 | CNC(=O)Cn1c(=O)nc(Nc2ccc(OC(C)C)c(F)c2)n(Cc2ccc(Cl)cc2)c1=O [I-294] | 40 nM
45 | Cc1cc(/N=c2\[nH]c(=O)n([C@@H](C)CC(=O)O)c(=O)n2Cc2ccc(Cl)cc2)ccc1OC(C)C [I-528] | 53 nM
46 | CCOc1ccc(/N=c2\[nH]c(=O)n(CC(C)(C)C(=O)OC)c(=O)n2Cc2ccc(Cl)cc2)cc1C [I-462] | 4 nM
47 | CC(C)Oc1ccc(Nc2nc(=O)n(CC(C)(C)CN)c(=O)n2Cc2ccc(Cl)cc2)cc1F [I-331] | 66 nM
48 | O=c1nc(Nc2ccc(F)c(F)c2)n(Cc2ccc(Cl)cc2)c(=O)n1CCO [I-316] | 712 nM
49 | N#CCOc1ccc(Nc2nc(=O)n(CCO)c(=O)n2Cc2ccc(Cl)cc2)cc1 [I-330] | 594 nM
50 | O=c1nc(Nc2ccc(OC(F)F)cc2)n(Cc2ccc(Cl)cc2)c(=O)n1CC(CO)CO [I-370] | 154 nM
51 | CCOc1ccc(Nc2nc(=O)n(C[C@H](C)C(=O)OC)c(=O)n2Cc2ccc(Cl)cc2)cc1 [I-530] | 34 nM
52 | COC(=O)C(C)(C)Cn1c(=O)[nH]/c(=N\c2cccc(C(F)(F)F)c2)n(Cc2ccc(Cl)cc2)c1=O [I-471] | 24 nM
53 | Cc1cc2cc(/N=c3\[nH]c(=O)n(C[C@H](C)C(=O)O)c(=O)n3Cc3ccc(Cl)cc3)ccc2o1 [I-540] | 27 nM
54 | COc1cc(Cl)ccc1Cn1c(Nc2ccc(OC(C)C)c(F)c2)nc(=O)n(C(C)C)c1=O [I-270] | 271 nM

Row | SMILES | IC50
55 | Cc1ccc(Cn2c(=O)n(C[C@H](C)C(=O)O)c(=O)[nH]/c2=N\c2ccc(OC(C)C)c(F)c2)cc1 [I-517] | 15 nM
56 | Cc1ccc(Cn2c(=O)n(CC(=O)NC(C)(C)C(=O)O)c(=O)[nH]/c2=N\c2ccc(OC(C)C)c(F)c2)cc1 [I-415] | 314 nM
57 | CC(C)Oc1ccc(Nc2nc(=O)n(CC(F)(F)C(=O)O)c(=O)n2Cc2ccc(Cl)cc2)cc1F [I-283] | 19 nM
58 | CC(C)Oc1ccc(Nc2nc(=O)n(CCCO)c(=O)n2Cc2ccc(Cl)cc2)cc1 [I-359] | 40 nM
59 | COCCn1c(=O)nc(Nc2ccc(OC(C)C)c(F)c2)n(Cc2ccc(Cl)cc2)c1=O [I-280] | 30 nM
60 | CC(C)Oc1ccc(Nc2nc(=O)n(C(F)F)c(=O)n2Cc2ccc(Cl)cc2)cc1F [I-310] | 389 nM
61 | COC(=O)[C@H](C)Cn1c(=O)[nH]/c(=N\c2ccc(OC(C)C)cc2)n(Cc2ccc(Cl)cc2)c1=O [I-479] | 7 nM
62 | CC(C)Oc1ccc(/N=c2\[nH]c(OCC(=O)O)nc(=O)n2Cc2ccc(Cl)cc2)cc1Cl [II-009] | 34 nM
63 | COC(=O)C(C)(C)Cn1c(=O)[nH]/c(=N\c2ccc(OC(C)C)c(F)c2)n(Cc2ccc(C)cc2)c1=O [I-404] | 12 nM
64 | CCOC(=O)C1(Cn2c(=O)[nH]/c(=N\c3ccc(OC(C)C)c(Cl)c3)n(Cc3ccc(Cl)cc3)c2=O)CC1 [I-423] | 4 nM
65 | Cc1cc(/N=c2\[nH]c(=O)[nH]c(=O)n2Cc2ccc(Cl)cc2)ccc1OC(C)C [I-499] | 137 nM
66 | CC(C)Oc1ccc(Nc2nc(=O)n(CCNC(=O)NCC(=O)O)c(=O)n2Cc2ccc(Cl)cc2)cc1F [I-392] | 38 nM
67 | CC(C)Oc1ccc(/N=c2\[nH]c(=O)n(C[C@@H](C)C(=O)O)c(=O)n2Cc2ccc(Cl)cc2)cc1F [I-455] | 30 nM
68 | O=c1nc(Nc2ccc(Oc3ccccc3)cc2)n(Cc2ccc(Cl)cc2)c(=O)n1CCO [I-334] | 99 nM
69 | CC(C)Oc1ccc(Nc2nc(=O)n(CCN(C)C)c(=O)n2Cc2ccc(Cl)cc2)cc1F [I-272] | 180 nM
70 | COC(=O)C(C)(C)Cn1c(=O)[nH]/c(=N\c2ccc3nc(C)oc3c2)n(Cc2ccc(Cl)cc2)c1=O [I-494] | 34 nM
71 | COC(=O)[C@@H](C)Cn1c(=O)[nH]/c(=N\c2ccc(OC(C)C)c(F)c2)n(Cc2ccc(Cl)cc2)c1=O [I-453] | 5 nM
72 | CCOc1ccc(Nc2nc(=O)n(CCO)c(=O)n2Cc2ccc(Cl)cc2)cc1F [I-312] | 104 nM
73 | CN(C)Cc1ccc(/N=c2\[nH]c(=O)n(CC(C)(C)C(=O)O)c(=O)n2Cc2ccc(Cl)cc2)cc1Cl [I-495] | 125 nM
74 | CCOc1ccc(/N=c2\[nH]c(=O)n(CC(C)(C)C(=O)O)c(=O)n2Cc2ccc(Cl)cc2)cc1Cl [I-446] | 20 nM
75 | CC(C)Oc1ccc(Nc2nc(=O)n(C(C)C)c(=O)n2Cc2ccc(Cl)cc2)cn1 [I-394] | 435 nM
76 | CC(C)Oc1ccc(/N=c2\[nH]c(=O)n(C(C)C(=O)O)c(=O)n2Cc2ccc(Cl)cc2)cc1F (stereo not shown) [I-475] | 571 nM
77 | O=c1nc(Nc2ccc(Cl)c(Cl)c2)n(Cc2ccc(Cl)cc2)c(=O)n1CCO [I-373] | 185 nM
78 | CSc1cccc(Nc2nc(=O)n(C(C)C)c(=O)n2Cc2ccc(F)cc2)c1 [I-130] | 953 nM
79 | CCn1c(=O)nc(Nc2ccc(Oc3ccccc3)cc2)n(Cc2ccc(F)cc2)c1=O [I-141] | 685 nM
